# Measured values taken from a melting point compilation (Tetko et al.; mined from patent text by program, amines drawn as free bases though some values may be those of a salt).
row,Structure (SMILES),melting point [°C]
1,O=c1ccc2c(F)cc(F)cc2[nH]1,292 to 318
2,CCCCN=C(O)c1c(Sc2ccccc2)c(Sc2ccccc2)c(Sc2ccccc2)c(Sc2ccccc2)c1C(=O)O,159 to 160
3,CCOC(=O)c1cnc2c(c1O)CCCCCC2,219 to 222
4,CSC(=NC#N)NCCSCc1cccnc1Nc1ccccc1,120 to 123
5,CCCCC1(CC)COP(=O)(Cc2ccc([N+](=O)[O-])cc2)OC1 (stereo not drawn),111 to 112
6,CCCCOC(=O)C(CC(C)C)NC(=O)c1cc([N+](=O)[O-])cc([N+](=O)[O-])c1 (stereo not drawn),95 to 98
7,Cc1c(F)c(N2CCNCC2)c(F)c2c1c(=O)c(C(=O)O)cn2C1CC1,205 to 206
8,CCc1c(OC)cc2c(c1O)C(=O)C[C@H]1CCN(C)C[C@@H]21 (relative stereo),221 to 223
9,CC(C)C1C(=O)N(c2ccc(N=Nc3ccc(N(C)C)cc3)cc2)C(=S)N1C (stereo not drawn),164 to 169
10,CCC(CC)c1ccc(C#N)c2nc(Nc3c(C)cc(Cl)cc3OC)n(C)c12,223 to 225
11,COC(=O)c1ccc(C(=O)NCC(C)C)c([N+](=O)[O-])c1,90 to 91
12,CC(C)(C)OC(=O)Nc1c(C#CBr)c(C#N)nn1-c1c(Cl)cc(C(F)(F)F)cc1Cl,168 to 170
13,COC(=C1C2CC3CC1CC(Cl)(C3)C2)c1cc(O)cc(Cl)c1,130
14,CN(CC(C)(C)[N+](=O)[O-])c1ccc(N(C)CC(C)(C)[N+](=O)[O-])cc1,119 to 121
15,Nc1cccc(Oc2ccc(C(=O)c3cccc(C(=O)c4ccc(Oc5cccc(N)c5)cc4)c3)cc2)c1,147 to 149
16,N#Cc1cc([N+](=O)[O-])ccc1OC1CCCCC1,97 to 98
17,Cn1ncnc1/C=C/c1ccccc1,67 to 70
18,CCSC1(SC)CCC2C3CCC4=CC(=O)C=CC4(C)C3(F)C(OC(C)=O)CC21C (stereo not drawn),140 to 142
19,CC(C)(O)C(=O)CC(=O)c1ccc(C(=O)CC(=O)C(C)(C)O)cc1,276 to 278
20,CC(C)(C)C(=O)NCc1cccs1,64 to 65
21,O=c1[nH]c2cc(Cl)c([N+](=O)[O-])c(Cl)c2[nH]c1=O,320 to 325
22,CN1C(=O)C(=O)N(CCCCCBr)C1=S,48 to 50
23,OC(c1ccc(Cl)cc1)c1cccc(Br)c1 (stereo not drawn),67 to 68

row,Structure (SMILES),melting point [°C]
1,Cc1nn(-c2c(Cl)cc(C(F)(F)F)cc2Cl)nc1SC#N,115 to 117
2,CCOC(=O)CN1C(=O)C(=O)N(C)C1=O,97 to 98.5
3,O=[N+]([O-])c1cccc(-c2nnc(Cl)s2)c1,162 to 165
4,Cn1c(C(F)(F)F)cc(=O)n(-c2ccc3snc(C(Br)C#N)c3c2)c1=O (stereo not drawn),185 to 187
5,CCCCN1C(=O)NC(=Cc2cc(OC)c(OC)cc2OC)C1=O,170
6,CC(=O)OC(=CC(=O)O)CC(=O)Nc1cccc(F)c1,117
7,O=C(O)C(=O)Nc1cc(NC(=O)C(=O)O)cc(C(=O)O)c1,> 320
8,CCCc1c(OCCCSc2ccc(CC(=O)O)c(Cl)c2Cl)ccc(C(C)=O)c1O,119 to 122
9,CCOC(=O)C=Cc1ccc(C=Cc2ccc(C=CC(=O)O)cc2)cc1,245 to 248
10,Oc1ccc(Cn2cc[nH]c2=S)cc1F,161 to 165
11,CC(O)c1cc2c(s1)C(=O)c1c(C(C)O)csc1C2=O (stereo not drawn),218 to 219
12,COC(=O)c1nc(Br)cc(N=[N+]=[N-])c1Cl,84 to 86
13,O=C(O)C1=Cc2cc(Cl)ccc2OC1C(F)(F)F (stereo not drawn),181 to 184
14,CCCCCCCCCCCCCCCCCCOCC(COP(=O)([O-])OCC[N+](C)(C)C)Oc1ccon1 (racemic),115 to 125
15,COC(=O)CCCCCCNC(=O)C(CO)NS(=O)(=O)c1ccc(Cl)cc1 (racemic),78 to 81
16,CC1CN2C(=O)c3nc[nH]c3N(Cc3ccc(Cl)cc3)C2=N1 (stereo not drawn),259 to 260
17,Nc1ccc(-c2noc(-c3cnc4ccc(-c5ccc(Cl)cc5)cn34)n2)cn1,273
18,COC(=O)c1ccc(CC(C)NCC(O)c2cccc(Cl)c2)cc1 (stereo not drawn),94 to 96
19,CCOC(=O)c1oc2ccc(Cl)cc2c1CN(C)CC(OC)OC,58 to 60
20,OC(CN1CC=C(c2c[nH]c3ccccc23)CC1)C1COc2ccccc2O1 (stereo not drawn),177
21,Brc1ccc2c(c1)C(c1ccc(Oc3ccccc3)cc1)(c1ccc(Oc3ccccc3)cc1)c1cc(Br)ccc1-2,178 to 180
22,N#CC1=CSCC1Nc1c(Cl)cccc1Cl (stereo not drawn),170 to 173

# Next, values leading:
row,melting point [°C],Structure (SMILES)
1,168,CCOC(=O)CC1(Cc2ccncc2)C(=O)N(N2CCOCC2)c2ccccc21 (stereo not drawn)
2,178 to 179,CCc1ccc(-c2ccc(C(=O)Nc3ccc4cc(CN5CCCC5)cnc4c3C)c(F)c2)cc1
3,65 to 66,O=Cc1cccc(-c2cccc3ccccc23)n1
4,217 to 219,O=C(c1cc2cc3oc(=O)[nH]c3cc2o1)N1CCC(OCc2ccccc2)CC1
5,200 to 202,N#Cc1c2c(c3c(c1N1CCCCC1)Cc1ccccc1-3)-c1ccccc1C2
6,151 to 152,CS(=O)(=O)NC(=O)NCCCc1ccc2c(NC(=O)CC3CCCCC3)c(Cl)ccc2n1
7,121,Cc1[nH]c2ccc(Cl)cc2c1C(C(=O)C1(Cl)C=CC=CC1)c1cc(=O)n(C2CCCCC2)[nH]1 (stereo not drawn)
8,130,O=C1C=CCC(CCc2ccccc2)(c2ccccc2)O1 (stereo not drawn)
9,138 to 140,O=C(O)Cc1cc([N+](=O)[O-])ccc1Sc1ccccc1
10,195 to 200,O=C(NCc1ccccc1)C1c2ccccc2-c2ccccc21
11,110,CN1CCC(c2c(O)cc(O)c3c(=O)cc(Sc4ccccc4Cl)oc23)C(O)C1 (stereo not drawn)
12,107 to 108,O=C(O)Cc1ccc2c(c1)CCC(C(F)(F)F)N2 (stereo not drawn)
13,151 to 152,COc1ccc(CCN2CCC(N3CCc4ccc(CNC(C)=O)cc43)CC2)cc1
14,140,O=C(Nc1ccccn1)c1c(O)ccc2cc(-c3cccc(O)c3)ccc12
15,100 to 102,Cc1ccc(S(=O)(=O)OCC2CCc3cc(C#N)ccc3C2)cc1 (stereo not drawn)
16,218 to 220,O=C1Cc2cc(CCN3CCN(c4nsc5ccccc45)CC3)c(Cl)cc2N1
17,> 290,Nc1nc2c(c(=O)[nH]1)C(CCc1ccc(C(=O)O)cc1)CN2 (stereo not drawn)
18,132 to 134,CC1(C)OC(=O)C(C(=O)Nc2ccc(Cl)c(Cl)c2)=C(O)O1
19,129 to 132,CCCOc1cc(=O)n(CCC)c(=O)n1Cc1ccc(-c2ccccc2C2NOC(=O)N2)cc1 (stereo not drawn)
20,117 to 118,COc1cc(CO)ccc1OCc1coc(-c2ccco2)n1
21,202 to 203,CN1CCC(Oc2cccc(Cn3cnc4cc(-c5ccc(Cl)cc5)sc4c3=O)n2)CC1
22,98 to 100,COc1cc(-c2ccccc2)nc(-c2ccc(CBr)cc2)n1
23,99 to 101,Cc1ccc(C(=O)c2cccc3c2CCC3(C)C(=O)O)cc1 (stereo not drawn)
24,147 to 148,CCC1CCCCN1CCC(=O)N1c2ccccc2NC(=O)c2ccccc21 (stereo not drawn)
25,153 to 155,N#Cc1ccc2[nH]cc(C3CCC4(CC3)OCCO4)c2c1
26,118 to 120,CN(C)CC#CC1=Cc2ccccc2Sc2ccc(Cl)cc21
27,241,Cn1cnc(COc2nn3c(-c4ccccc4)nnc3cc2-c2ccoc2)n1

row,melting point [°C],Structure (SMILES)
1,180 to 182,COCCOC1CCN(c2ccc(NC(=O)c3cnn(-c4ccc(Cl)cc4)c3C)cc2C#N)CC1
2,183 to 185,CCOC(=O)CCN1CCN(CC=CC(=O)Nc2cc3c(Nc4ccc(F)c(Cl)c4)ncnc3cc2OCC2CC2)CC1
3,122 to 128,CCN1C(=O)C(C)(C)C(=O)N(C)c2cc(OCCCn3c(=O)c(-c4ccccc4)c(Cl)c4ccccc43)ccc21
4,175,COc1ccccc1CNc1ccc2cc(Nc3nc(C)no3)ccc2n1
5,82,Cc1nc(CN2CCN(c3cccc(Br)c3)CC2)cs1
6,218,CCn1nc(-c2ccc(F)cc2)c(C(C)=O)c(Nc2cccc3ncccc23)c1=O
7,147 to 149,O=P(Cc1ccccc1)(C1CCCCC1)C1CCCCC1
8,207 to 208,CC(C)=NOCc1nc2c(N)nc3cccnc3c2n1CCCNC(=O)NC1CCCCC1
9,123 to 126,Cc1cccc(-c2[nH]c(C(C)C)nc2-c2cccc(-c3cccc(S(N)(=O)=O)c3)c2)n1
10,305 to 307,O=c1cc(-c2ccncc2)nc2n1CC(O)CN2 (stereo not drawn)
11,182 to 184,CCOC(=O)c1ccc(N2Cc3ccccc3C2=O)cc1
12,124,CC(C)c1cccc(C(C)C)c1NC(=O)NCC1(S(=O)(=O)c2ccccc2)CCCC1
13,160,Cc1cc(C)cc(S(=O)(=O)n2c(CCCCC(=O)O)cc3nc(Cl)ccc32)c1
14,141 to 143,COC(=O)C1CCc2c(noc2-c2ccc(Cl)cc2)C1 (stereo not drawn)
15,97 to 99,CCOC(=O)C(O)Cc1ccc(OCCNC(=O)c2ccc(-c3ccccn3)cc2)cc1 (stereo not drawn)
16,85 to 86,c1ccc(C(=C2CCNCC2)c2ccccc2)cc1
17,140 to 141,CCOC(=O)c1c(CCl)nc2ccc(Cl)cc2c1-c1ccc(Cl)cc1
18,153,O=C1NC(CCN2CCC(C(=O)c3ccc(F)cc3)CC2)Nc2ccccc21 (stereo not drawn)
19,110,CCc1nn(CCOc2ccc(C=O)cc2)c(=O)c2ccccc12
20,119 to 124,O=C(Nc1ccc(N2CCNCC2)cc1)c1ccccc1-c1ccc(C(F)(F)F)cc1
21,121 to 123,COc1cc(C(=O)Cl)ccc1NC(=O)c1ccccc1-c1ccccc1
22,98 to 99,CC(C)c1ncc(CCCOc2nn(Cc3ccccc3)cc2CC(=O)O)c(Oc2ccc(Cl)cc2Cl)n1
23,136 to 138,COC1=C(Br)C(=O)O/C1=C\c1ccccc1C(F)(F)F
24,215 to 220,CCCCN1CCC(NC(=O)c2cnc3c(OC)cccc3c2Nc2ccc(C(=O)NC3CCN(Cc4ccccc4)CC3)cc2)CC1
25,259 to 262,CC(C)(C)c1ccc2c(c1)C(=O)c1ccc(C(=O)O)cc1S2(=O)=O
26,195 to 196,Cc1ccc2c(c1)c1cc(-c3ccc(OCC#N)cc3)c(=O)n(C)c1n2C
